Our source for the EC50 values is US11155525B2 (Sanford Burnham Prebys Medical Discovery Institute, priority 2015, dated 2021).

A word on the EC50: it is the concentration that produces a half-maximal response. The low end stands for a more potent agent, the high end for a less potent agent.

This assay deals with T1, human apelin receptor (Homo sapiens, UniProt P35414).
T1 construct: host or cells: CHO cells
T1 sequence (P35414 1-380): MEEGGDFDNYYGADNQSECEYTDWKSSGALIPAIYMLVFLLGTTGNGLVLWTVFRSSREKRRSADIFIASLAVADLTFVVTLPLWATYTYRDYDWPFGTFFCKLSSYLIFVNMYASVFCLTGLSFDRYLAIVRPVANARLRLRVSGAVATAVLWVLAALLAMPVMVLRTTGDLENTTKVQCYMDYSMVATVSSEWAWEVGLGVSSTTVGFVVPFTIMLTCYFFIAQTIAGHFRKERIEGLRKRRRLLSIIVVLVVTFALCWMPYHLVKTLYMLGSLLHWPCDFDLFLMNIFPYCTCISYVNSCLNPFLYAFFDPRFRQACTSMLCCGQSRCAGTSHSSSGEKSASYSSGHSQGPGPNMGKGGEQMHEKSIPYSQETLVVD
Put plainly: Measurement of apelin receptor agonist activity (cell-based assay determining the amount of intracellular cAMP). As to conditions: CHO cells stably expressing the human apelin receptor, Forskolin 10 μM, 30 minutes, 100% efficacy = [Pyr1]-apelin-13 0.300 μM, concentration giving 50% efficacy. The procedure: Measurement of Apelin Receptor Agonist Activity
The apelin receptor agonist activity of the compound represented by formula (I) or (II) of the present invention was measured by cell-based assay for determining the amount of intracellular cAMP.
CHO cells (DiscoveRx Corp.) stably expressing the human apelin receptor were inoculated to wells of a microtiter plate and cultured overnight at 37° C. under conditions of 5% CO2.
Each test compound and Forskolin were added to the wells at the same time. Specifically, the test compound dissolved in DMSO was diluted with a Forskolin-containing buffer [DMEM/F-12, HEPES, no phenol red (#11039, GIBCO)] to prepare a mixed solution containing the test compound at a final concentration of […] (common ratio: 3, serial dilution: 11), Forskolin at a final concentration of 10 μM, and DMSO at a final concentration of 0.3% v/v, which was then added to the wells (N═4).
After 30 minutes, the cells were lysed, and HitHunter cAMP XS+ Assay #90-0075L (DiscoveRx Corp.) was added to the cell lysate. The mixture was left overnight, and the resulting chemiluminescence signals were then detected using Analyst GT (Molecular Devices LLC.) to determine the amount of cAMP.
The amount of cAMP determined by the addition of a positive control [Pyr1]-apelin-13 (final concentration: 0.300 μM) and Forskolin (final concentration: 10 μM) at the same time was used as an index to define 100% efficacy. The amount of cAMP determined by the addition of Forskolin (final concentration: 10 μM) alone was used as an index to define 0% efficacy.
A dose response curve was prepared from the final concentration of the test compound and the determined amount of cAMP using Sigmaplot 12.0.

On to `COC(=O)C(Sc1nnc(-c2ccc(C)o2)n1-c1c(OC)cccc1OC)c1cccc2ccccc12` (stereo not drawn) [Example 37, Methyl {[4-(2,6-dimethoxyphenyl)-5-(5-methylfuran-2-yl)-4H-1,2,4-triazol-3-yl]sulfanyl}(naphthalen-1-yl)acetate], for which the response was half-maximal at 825 nM (EC50). `COc1cccc(OC)c1-n1c(SCc2nccs2)nnc1-c1ccc(C)o1` [Example 76, 4-(2,6-Dimethoxyphenyl)-3-(5-methylfuran-2-yl)-5-[(1,3-thiazol-2-ylmethyl)sulfanyl]-4H-1,2,4-triazole] returned an EC50 of 158 nM. This EC50 lies about 5.2-fold lower than the previous one. Compound `COc1cccc(OC)c1-n1c(SCc2cc(=O)[nH][nH]2)nnc1-c1ccc(C)o1` [Example 104, 5-({[4-(2,6-Dimethoxyphenyl)-5-(5-methylfuran-2-yl)-4H-1,2,4-triazol-3-yl]sulfanyl}methyl)-1,2-dihydro-3H-pyrazol-3-one] showed an EC50 of 48 nM. As for `COc1cccc(OC)c1-n1c(SCCCCC(=O)O)nnc1-c1ccc(C)o1` [Example 49, 5-{[4-(2,6-Dimethoxyphenyl)-5-(5-methylfuran-2-yl)-4H-1,2,4-triazol-3-yl]sulfanyl}pentanoic acid], the figure is 393 nM; as for `COc1cccc(OC)c1-n1c(SC(C(=O)O)c2cccc3ccccc23)nnc1-c1ccc(C)o1` (stereo not drawn) [Example 38, {[4-(2,6-Dimethoxyphenyl)-5-(5-methylfuran-2-yl)-4H-1,2,4-triazol-3-yl]sulfanyl}(naphthalen-1-yl)acetic acid], 9 nM; as for `COc1cccc(OC)c1-n1c(SC(C)C(=O)O)nnc1-c1ccc(C)o1` (stereo not drawn) [Example 41, 2-{[4-(2,6-Dimethoxyphenyl)-5-(5-methylfuran-2-yl)-4H-1,2,4-triazol-3-yl]sulfanyl}propanoic acid], 45 nM. With `CCOC(=O)/C=C/c1nnc(-c2ccc(C)o2)n1-c1c(OC)cccc1OC` [Example 8, Ethyl (2E)-3-[4-(2,6-dimethoxyphenyl)-5-(5-methylfuran-2-yl)-4H-1,2,4-triazol-3-yl]prop-2-enoate], the half-maximal effective concentration (EC50) was 1570 nM. `COc1cccc(OC)c1-n1c(SC(C)(C)C(=O)O)nnc1-c1ccc(C)o1` [Example 36, 2-{[4-(2,6-Dimethoxyphenyl)-5-(5-methylfuran-2-yl)-4H-1,2,4-triazol-3-yl]sulfanyl}-2-methylpropanoic acid] returned an EC50 of 108 nM.

As to `COc1cccc(OC)c1-n1c(CNS(=O)(=O)c2ccc(C)cc2)nnc1-c1ccc(C)o1` [Example 107, N-{[4-(2,6-Dimethoxyphenyl)-5-(5-methylfuran-2-yl)-4H-1,2,4-triazol-3-yl]methyl}-4-methylbenzenesulfonamide], the midpoint of the response, the EC50, lay at 668 nM. With `COc1cccc(OC)c1-n1c(/C=C/C(=O)O)nnc1-c1ccc(C)o1` [Example 65, Sodium (2E)-3-[4-(2,6-dimethoxyphenyl)-5-(5-methylfuran-2-yl)-4H-1,2,4-triazol-3-yl]prop-2-enoate] the figure was 75 nM; with `CCOC(=O)CSc1nnc(-c2ccc(C)o2)n1-c1c(OC)cccc1OC` [Example 4, Ethyl {[4-(2,6-dimethoxyphenyl)-5-(5-methylfuran-2-yl)-4H-1,2,4-triazol-3-yl]sulfanyl}acetate], 122 nM. As for `CCOC(=O)COCc1nnc(-c2ccc(C)o2)n1-c1c(OC)cccc1OC` [Example 66, Ethyl {[4-(2,6-dimethoxyphenyl)-5-(5-methylfuran-2-yl)-4H-1,2,4-triazol-3-yl]methoxy}acetate], the figure is 817 nM; as for `COc1cccc(OC)c1-n1c(SCc2ccccc2C(=O)O)nnc1-c1ccc(C)o1` [Example 78, 2-({[4-(2,6-Dimethoxyphenyl)-5-(5-methylfuran-2-yl)-4H-1,2,4-triazol-3-yl]sulfanyl}methyl)benzoic acid], 34 nM; as for `COc1cccc(OC)c1-n1c(SCc2cc(=O)n3cc(Cl)ccc3n2)nnc1-c1ccc(C)o1` [Example 3, 7-Chloro-2-({[4-(2,6-dimethoxyphenyl)-5-(5-methylfuran-2-yl)-4H-1,2,4-triazol-3-yl]sulfanyl}methyl)-4H-pyrido[1,2-a]pyrimidin-4-one], 2 nM. With `CCc1nnc(-c2ccc(C)o2)n1-c1c(OC)cccc1OC` [Example 17, 4-(2,6-Dimethoxyphenyl)-3-ethyl-5-(5-methylfuran-2-yl)-4H-1,2,4-triazole] the figure was 1410 nM; with `COC(=O)[C@@H]1CCCN1C(=O)/C=C/c1nnc(-c2ccc(C)o2)n1-c1c(OC)cccc1OC` [Example 90, Methyl 1-{(2E)-3-[4-(2,6-dimethoxyphenyl)-5-(5-methylfuran-2-yl)-4H-1,2,4-triazol-3-yl]prop-2-enoyl}-L-prolinate], 503 nM; with `COc1cccc(OC)c1-n1c(SCC(=O)O)nnc1-c1cccs1` [Example 30, {[4-(2,6-Dimethoxyphenyl)-5-(thiophen-2-yl)-4H-1,2,4-triazol-3-yl]sulfanyl}acetic acid], 332 nM. In the case of `COC(=O)/C=C\c1nnc(-c2ccc(C)o2)n1-c1c(OC)cccc1OC` [Example 55, Methyl (2Z)-3-[4-(2,6-dimethoxyphenyl)-5-(5-methylfuran-2-yl)-4H-1,2,4-triazol-3-yl]prop-2-enoate], the EC50 was 1920 nM. With `COc1cccc(OC)c1-n1c(SCC(=O)O)nnc1-c1ccco1` [Example 61, {[4-(2,6-Dimethoxyphenyl)-5-(furan-2-yl)-4H-1,2,4-triazol-3-yl]sulfanyl}acetic acid] the figure was 412 nM; with `COc1cccc(OC)c1-n1c(SCc2cc(=O)n(C)c(=O)n2C)nnc1-c1ccc(C)o1` [Example 15, 6-({[4-(2,6-Dimethoxyphenyl)-5-(5-methylfuran-2-yl)-4H-1,2,4-triazol-3-yl]sulfanyl}methyl)-1,3-dimethylpyrimidine-2,4(1H,3H)-dione], 164 nM; with `COc1cccc(OC)c1-n1c(SCc2cccc(C(=O)O)c2)nnc1-c1ccc(C)o1` [Example 80, 3-({[4-(2,6-Dimethoxyphenyl)-5-(5-methylfuran-2-yl)-4H-1,2,4-triazol-3-yl]sulfanyl}methyl)benzoic acid], 1530 nM.

With `COc1cccc(OC)c1-n1c(/C=C/C(C)O)nnc1-c1ccc(C)o1` (stereo not drawn) [Example 23, (3E)-4-[4-(2,6-Dimethoxyphenyl)-5-(5-methylfuran-2-yl)-4H-1,2,4-triazol-3-yl]but-3-en-2-ol], the midpoint of the response, the EC50, lay at 271 nM. As for `COc1cccc(OC)c1-n1c(SCCCCCC(=O)O)nnc1-c1ccc(C)o1` [Example 50, 6-{[4-(2,6-Dimethoxyphenyl)-5-(5-methylfuran-2-yl)-4H-1,2,4-triazol-3-yl]sulfanyl}hexanoic acid], the figure is 1320 nM. As for `COc1cccc(OC)c1-n1c(SCc2cc(=O)n3cc(C)ccc3n2)nnc1-c1cccs1` [Example 11], the figure is 5 nM; as for `COc1ccnc(OC)c1-n1c(SCC(=O)O)nnc1-c1ccc(C)o1` [Example 34, {[4-(2,4-Dimethoxypyridin-3-yl)-5-(5-methylfuran-2-yl)-4H-1,2,4-triazol-3-yl]sulfanyl}acetic acid], 152 nM. In the case of `COc1cccc(OC)c1-n1c(/C=C/C(=O)O)nnc1-c1ccc(C)o1` [Example 64, Ammonium (2E)-3-[4-(2,6-dimethoxyphenyl)-5-(5-methylfuran-2-yl)-4H-1,2,4-triazol-3-yl]prop-2-enoate], a half-maximal effect (EC50) was put at 52 nM. This EC50 lies about 2.9-fold lower than the previous one. As for `COc1cccc(OC)c1-n1c(SCc2nc(=O)o[nH]2)nnc1-c1ccc(C)o1` [Example 94, 3-({[4-(2,6-Dimethoxyphenyl)-5-(5-methylfuran-2-yl)-4H-1,2,4-triazol-3-yl]sulfanyl}methyl)-1,2,4-oxadiazol-5(2H)-one], the EC50 turned out to be 71 nM. In turn, `COc1cccc(OC)c1-n1c(SCc2cc(=O)n3nccc3[nH]2)nnc1-c1ccc(C)o1` [Example 16, 5-({[4-(2,6-Dimethoxyphenyl)-5-(5-methylfuran-2-yl)-4H-1,2,4-triazol-3-yl]sulfanyl}methyl)pyrazolo[1,5-a]pyrimidin-7(4H)-one] returned an EC50 of 314 nM. Consider `COc1cccc(OC)c1-n1c(/C=C/C(=O)N(C)OC)nnc1-c1ccc(C)o1` [Example 54, (2E)-3-[4-(2,6-Dimethoxyphenyl)-5-(5-methylfuran-2-yl)-4H-1,2,4-triazol-3-yl]-N-methoxy-N-methylprop-2-enamide], for which a half-maximal effect (EC50) was put at 1200 nM. For `COc1cccc(OC)c1-n1cnnc1-c1ccc(C)o1` [Example 6, 4-(2,6-Dimethoxyphenyl)-3-(5-methylfuran-2-yl)-4H-1,2,4-triazole], the concentration for a half-maximal effect (EC50) is 703 nM.
